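Tested at 5 concentrations; 48 h exposure; 96-well plates; endpoints linearly interpolated, else capped at highest concentration. GI50 = concentration required for 50% inhibition of growth.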 Activity calls are given as the source filed them. Cut-off read from the data, not from the text of the source: active = GI50 up to about 1.1 µM and inactive = higher.
What was measured:
Experiment in all cases: DTP human tumour cell line panel, 48 h
[1] = test system: MDA-N
[2] = test system: ACHN
[3] = test system: Malme-3M
[4] = test system: EKVX
[5] = test system: HCT-116
[6] = test system: SR
[7] = test system: CCRF-CEM
[8] = test system: CAKI-1
[9] = test system: NCI/ADR-RES
[10] = test system: DU-145
[11] = test system: HL-60
[12] = test system: K562
[13] = test system: HCC 2998
[14] = test system: IGROV-1
[15] = test system: A549
[16] = test system: SF-268
[17] = test system: SK-OV-3
[18] = test system: M14
[19] = test system: Hs-578T
[20] = test system: UACC-62

Measured: GI50

Cc1cc(NS(=O)(=O)c2ccc(Nc3c4ccccc4nc4ccc(C(=O)Nc5ccc(S(=O)(=O)N=C(N)N)cc5)cc34)cc2)no1
inactive: [1] > 100 µM | [2] > 100 µM | [3] > 100 µM | [4] > 100 µM | [5] > 100 µM | [6] > 100 µM | [7] 66.1 µM | [8] > 100 µM | [9] > 100 µM | [10] > 100 µM | [11] > 100 µM | [12] > 100 µM | [13] > 100 µM | [14] > 100 µM | [15] > 100 µM | [16] > 100 µM | [17] > 100 µM | [18] > 100 µM | [19] > 100 µM | [20] > 100 µM
